Measured values published in patent US20230099344A1, “COMPOUNDS AND METHODS FOR THE TARGETED DEGRADATION OF IRAK-4” (Arvinas Operations, Inc., priority 2021, published 2023).

Legend:
Assay type in all cases: cell-based
IRAK-4 [1] = target: T1, IRAK-4 (Homo sapiens, UniProt Q9NWZ3); test: IRAK-4 ELISA, PBMC degradation; parameters: endogenous in cells; host or cells: PBMC; settings: treated overnight
T1 sequence (Q9NWZ3 1-460): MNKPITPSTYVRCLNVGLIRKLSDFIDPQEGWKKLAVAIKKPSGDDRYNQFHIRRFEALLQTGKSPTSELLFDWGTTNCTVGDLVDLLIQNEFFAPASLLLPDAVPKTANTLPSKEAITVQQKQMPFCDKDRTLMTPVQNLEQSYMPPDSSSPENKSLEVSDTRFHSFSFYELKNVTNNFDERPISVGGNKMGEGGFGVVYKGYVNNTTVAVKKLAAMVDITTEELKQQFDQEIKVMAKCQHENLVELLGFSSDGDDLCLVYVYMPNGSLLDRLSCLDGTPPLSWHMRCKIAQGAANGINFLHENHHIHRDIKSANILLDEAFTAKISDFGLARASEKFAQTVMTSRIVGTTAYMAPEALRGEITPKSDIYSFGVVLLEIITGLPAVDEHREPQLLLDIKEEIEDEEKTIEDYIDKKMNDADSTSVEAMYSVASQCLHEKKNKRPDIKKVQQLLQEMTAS
In short: (§1)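 Readout: IRAK-4 protein level in cell lysate, sandwich ELISA. Cells: OCI-Ly10 at 1×10^6/ml or PBMC at 2×10^6/ml, compound added same day, overnight incubation.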

IRAK-4 [2] = target: T1, IRAK-4; test: IRAK-4 ELISA, OCI-Ly10 degradation; parameters: endogenous in cells; settings: treated overnight
In short: as §1

IL6 = test: IL-1β stimulated IL6 inhibition assay in PBMC; settings: PBMC, human PBMCs, IL-1β stimulation, compound overnight, IL6 by MSD after 24 hrs; for IC50: Homo sapiens, 24 h, read-out: IL1β stim IL6 inhibition IC50; for Emax: read-out: IL1β stim IL6 inhibition Ymax
Description: (§2) IL-1β, LPS, or R848 Stimulated IL6 Inhibition and IL-1β Stimulated IL8 Inhibition Assay
(§3) Human PBMC cells were seeded at 2.0×10^6 cells/mL, treated with compound overnight, and dosed with the EC50 concentration of each stimulant (either IL-1B. LPS, or R848) was determined for each donor. After 24 hrs, media was collected and analyzed by MSD for IL6 and/or IL8 levels.

IL8 = test: IL-1β stimulated IL8 inhibition assay in PBMC; settings: human PBMCs, IL-1β stimulation, compound overnight, IL8 by MSD after 24 hrs; for IC50: read-out: IL1β stim IL8 inhibition IC50; for Emax: read-out: IL1β stim IL8 inhibition Ymax
Description: as §2, §3

Structure (SMILES) | DC50 (IRAK-4 [1]) | Dmax (IRAK-4 [1]) | PBMC DC90 (IRAK-4 [1]) | Dmax (IRAK-4 [2]; OCI-Ly10, OCI-Ly10 cells) | DC50 (IRAK-4 [2]; OCI-Ly10 cells) | IC50 (IL6) | IC50 (IL8) | Emax (IL6) | Emax (IL8)
COc1cc2nn(C3CCN(CC4CN(c5ccc6c(c5)CN(C5CCC(=O)NC5=O)C6=O)C4)CC3)cc2cc1NC(=O)c1cnn2cccnc12 (stereo not shown) [Example 142] | < 1 nM | 80 to 90% | A (A represents a DC90 value <10.0 nM) | 70 to 80% | < 10 nM | < 10 nM | 10 to 50 nM | ≥ 90% | < 70%
CC(C)Oc1cc2c(cc1NC(=O)c1cnn3cccnc13)CN([C@H]1CC[C@@H](N3CCN(c4ccc5c(c4)C(=O)N(C4CCC(=O)NC4=O)C5=O)CC3)CC1)C2=O (stereo partly shown) [Example 67] | 1 to 5 nM | ≥ 90% | C (C represents a DC90 value ≥25.0 nM and <50 nM) |  |  | 10 to 50 nM | ≥ 100 nM | ≥ 90% | ≥ 90%
O=C1CCC(N2Cc3cc(N4CC(N5CCC(n6cc7cc(NC(=O)c8cnn9cccnc89)c(OCC8CC8)cc7n6)CC5)C4)ccc3C2=O)C(=O)N1 (stereo not shown) [Example 283] | < 1 nM | ≥ 90% | A (A represents a DC90 value <10.0 nM) |  |  | < 10 nM | 10 to 50 nM | ≥ 90% | < 70%
CC(C)Oc1cc2c(cc1NC(=O)c1cnn3cccnc13)CN(C1CCN(CC3CCN(c4cc5c(cc4F)C(=O)N(C4CCC(=O)NC4=O)C5=O)CC3)CC1)C2=O (stereo not shown) [Example 13] | < 1 nM | ≥ 90% | C (C represents a DC90 value ≥25.0 nM and <50 nM) |  |  | 10 to 50 nM | ≥ 100 nM | ≥ 90% | ≥ 90%
CC(C)Oc1cc2c(cc1NC(=O)c1cnn3cccnc13)CN([C@H]1CC[C@H](N3CCN(c4ccc5c(c4)C(=O)N(C4CCC(=O)NC4=O)C5=O)CC3)CC1)C2=O (stereo partly shown) [Example 66] | 1 to 5 nM | ≥ 90% | A (A represents a DC90 value <10.0 nM) |  |  | 10 to 50 nM | 50 to 100 nM | ≥ 90% | 70 to 80%
O=C1CCC(N2Cc3cc(N4CCC(CN5CCC(N6Cc7cc(NC(=O)c8cnn9cccnc89)c(OCC8CC8)cc7C6=O)CC5)CC4)ccc3C2=O)C(=O)N1 (stereo not shown) [Example 22] | < 1 nM | 80 to 90% | A (A represents a DC90 value <10.0 nM) |  |  | < 10 nM | 10 to 50 nM | ≥ 90% | 70 to 80%
CC(C)Oc1cc2c(cc1NC(=O)c1cnn3cccnc13)CN(C1CCN(CC3CCN(c4ccc5c(c4)CN(C4CCC(=O)NC4=O)C5=O)CC3)CC1)C2=O (stereo not shown) [Example 6] | < 1 nM | ≥ 90% | 6 nM |  |  | < 10 nM | 10 to 50 nM | ≥ 90% | 80 to 90%

Now from value to compound, other results behind:

DC50 (IRAK-4 [1]) | Dmax (IRAK-4 [1]) | PBMC DC90 (IRAK-4 [1]) | Dmax (IRAK-4 [2]; OCI-Ly10, OCI-Ly10 cells) | DC50 (IRAK-4 [2]; OCI-Ly10 cells) | IC50 (IL6) | IC50 (IL8) | Structure (SMILES) | Emax (IL6) | Emax (IL8)
5 to 10 nM | 80 to 90% | D (D represents a DC90 value ≥50 nM) |  |  | ≥ 100 nM | ≥ 100 nM | CC(C)Oc1nc2c(cc1NC(=O)c1cnn3cccnc13)CN(C1CCN(CCc3ccc4c(c3)C(=O)N(C3CCC(=O)NC3=O)C4=O)CC1)C2=O (stereo not shown) [Example 400] | ≥ 90% | 
< 1 nM | ≥ 90% | A (A represents a DC90 value <10.0 nM) |  |  | < 10 nM | 10 to 50 nM | CN(C1CN(c2ccc3c(c2)C(=O)N(C2CCC(=O)NC2=O)C3=O)C1)[C@H]1CC[C@H](n2cc3cc(NC(=O)c4cnn5cccnc45)c(OCC4CC4)cc3n2)CC1 (stereo partly shown) [Example 336] | ≥ 90% | 70 to 80%
< 1 nM | ≥ 90% | A (A represents a DC90 value <10.0 nM) |  |  | < 10 nM | ≥ 100 nM | CC(C)Oc1nc2c(cc1NC(=O)c1cnn3cccnc13)CN(C1CCN(CC3CN(c4ccc5c(c4)C(=O)N(C4CCC(=O)NC4=O)C5=O)C3)CC1)C2=O (stereo not shown) [Example 398] | ≥ 90% | 
